Measured values from patent US20250034196A1, “ESTER DERIVATIVES OF N4-HYDROXYCYTIDINE AND USE THEREOF” (priority 2021, published 2025).

Legend:
in vitro [1] = type: in vitro ADME; conditions: plasma
Method: (§1) Preparation of Solutions: Stock solution (10 mM) of each of test compounds was prepared in DMSO. The stock solution for each compound was then diluted into 100 μM with acetonitrile.
Plasma Incubations: Plasma incubations were conducted in duplicate in 96-well plate at 37° C. Plasma was prewarmed in a total volume of 198 μL for 5 min at 37° C., then added 2 μL of 100 μM test compound into an incubation well containing plasma, pipette-mixed to achieve a homogenous suspension and immediately transferred 20 μL incubate as a 0 min sample to wells in a “Quenching” plate followed by adding 200 μL of acetonitrile with metolazone as internal standard (IS) and pipette-mixing. At 2, 5, 60, and 90 min, pipette-mixed the incubate and serially transfer samples of 20 μL incubate per time point to wells in a separate “Quenching” plate followed by adding 200 μL of acetonitrile with metolazone as IS and pipette-mixing.
(§2) Sample Analysis: The 96-well plate was centrifuged at 6000 g for 10 min. The supernatant was injected onto the LC-MS/MS system for analysis.

in vitro [2] = type: in vitro ADME; conditions: microsomes, pH 7.4
Method: as §1
(§3) Microsome Incubations: Incubation mixtures were prepared in a total volume of 200 μL with final component concentrations as follows: 0.1M PBS (pH 7.4), NADPH (2 mM) and liver microsomes (0.2 mg/mL) as well as test compound (1 μM) or Molnupiravir (1 μM) as a positive control, wherein the NADPH was added after a 5-min preincubation of all other components at 37° C. Pipette-mixed to achieve a homogenous suspension and immediately transferred 20 μL incubate as a 0 min sample to wells in a “Quenching” plate followed by adding 200 μL of acetonitrile with metolazone as IS and pipette-mixing. At 2, 5, 10, and 45 min, pipette-mixed the incubate and serially transfer samples of 20 μL incubate per time point to wells in a separate “Quenching” plate followed by adding 200 μL of acetonitrile with metolazone as IS and pipette-mixing.
as §2

Microsome stability = type: in vitro ADME, Monkey; conditions: Monkey liver microsomes 0.2 mg/mL, NADPH, 1 μM
Method: as §1, §3, §2

in vivo = test: in vivo; design: species or system Beagle Dogs; conditions: dog, po, 22 mg/kg; for AUC(0-inf): AUCINF of CH2107 (Molnupiravir); for AUC(0-t): AUClast of CH2107 (Molnupiravir); for Cmax: Cmax of CH2107 (Molnupiravir); for MRT inf: MRTINF of CH2107 (Molnupiravir); for half-life: T1/2 of CH2107 (Molnupiravir); for Tmax: Tmax of CH2107 (Molnupiravir)
Method: Example 174: Pharmacokinetic Study of EX-2 (CH2101), Molnupiravir (CH2017) and its Metabolite NHC (CH2018) Following a Single PO Administration of EX-2 (CH2101) or Molnupiravir (CH2017) in Male and Female Beagle Dogs
Both test compounds were prepared in 1% methyl cellulose (400 cps, SIGMA, SLCF9694) solution in purified water.
A total of 6 male+6 female Beagle Dogs, approximately 7-13 kg of bodyweight, were originally purchased from Marshall Biotechnology Co., Ltd. The animals were fasted overnight prior to dosing and food was re-provided after 4 hours post dosing.
The animals were restrained manually, and approximately 1 mL of blood at each time point was collected into pre-cooled EDTA-K2 tubes via cephalic or saphenous veins. Blood samples were centrifuged at 4° C. (4000 rpm. 5 min) to obtain plasma within 30 min after sample collection. All samples were stored at approximately −80° C. until analysis. The backup samples will be discarded after the in vivo experiment has been completed for two months unless requested.

SARS-CoV-2 = conditions: 800 mg twice a day for 5 days, early infected patients; cited from earlier work
in vitro [3] = conditions: African green monkey
[4] = both sexes, beagle, Plasma concentration of CH2107 (Molnupiravir)
[5] = female, beagle, Plasma concentration of CH2107 (Molnupiravir)
[6] = male, beagle, Plasma concentration of CH2107 (Molnupiravir)

SMILES: CC(C)C(=O)OC[C@H]1O[C@@H](n2ccc(NO)nc2=O)[C@H](O)[C@@H]1O [Molnupiravir]
- half-life at 1 µM (in vitro [1]; dog): 39.4 min
- half-life at 1 µM (in vitro [1]; human): 66.2 min
- half-life at 1 µM (in vitro [1]; monkey): 25.8 min
- half-life at 1 µM (in vitro [1]; mouse): 25.8 min
- half-life at 1 µM (in vitro [1]; rat): 3.3 min
- half-life at 1 µM (in vitro [2]; dog): 3.9 min
- half-life at 1 µM (in vitro [2]; human): 71.3 min
- half-life at 1 µM (in vitro [2]; mouse): 5.6 min
- half-life at 1 µM (in vitro [2]; rat): 13.8 min
- T1/2 (Microsome stability): 4.7 min
- AUC(0-inf) (in vivo; both sexes, Beagle): 932 ng·h/mL
- AUC(0-t) (in vivo; both sexes, Beagle): 930 ng·h/mL
- Cmax (in vivo; both sexes, Beagle): 1320 ng/mL
- MRT inf (in vivo; both sexes, Beagle): 38.9 min
- half-life (in vivo; both sexes, Beagle): 25.2 min
- concentration at 0.083 hr (in vivo; [4]): 496 ng/mL
- concentration at 0.25 hr (in vivo; [4]): 1300 ng/mL
- concentration at 0.5 hr (in vivo; [4]): 1010 ng/mL
- concentration at 1 hr (in vivo; [4]): 230 ng/mL
- concentration at 2 hr (in vivo; [4]): 28.2 ng/mL
- concentration at 4 hr (in vivo; [4]): 4.75 ng/mL
- concentration at 6 hr (in vivo; [4]): 5.45 ng/mL
- concentration at 8 hr (in vivo; [4]): 1.08 ng/mL
- Tmax (in vivo; both sexes, beagle): 18.8 min
- AUCmale/female of CH2107 (Molnupiravir) (in vivo; both, Beagle): 171%
- AUCmale/female of EX-1/NHC/CH2018 (in vivo; both, Beagle): 128%
- Plasma concentration of EX-1/NHC/CH2018 (in vivo; both, Beagle, 0.083 hr): 527 ng/mL
- Plasma concentration of EX-1/NHC/CH2018 (in vivo; both, Beagle, 0.25 hr): 5653 ng/mL
- Plasma concentration of EX-1/NHC/CH2018 (in vivo; both, Beagle, 0.5 hr): 8040 ng/mL
- Plasma concentration of EX-1/NHC/CH2018 (in vivo; both, Beagle, 1 hr): 8648 ng/mL
- Plasma concentration of EX-1/NHC/CH2018 (in vivo; both, Beagle, 2 hr): 4038 ng/mL
- Plasma concentration of EX-1/NHC/CH2018 (in vivo; both, Beagle, 4 hr): 970 ng/mL
- Plasma concentration of EX-1/NHC/CH2018 (in vivo; both, Beagle, 6 hr): 244 ng/mL
- Plasma concentration of EX-1/NHC/CH2018 (in vivo; both, beagle, 8 hr): 105 ng/mL
- Plasma concentration of EX-1/NHC/CH2018 (in vivo; both, beagle, 24 hr): 18.4 ng/mL
- AUCINF of CH2107 (Molnupiravir) (in vivo; female, Beagle): 778 ng·h/mL
- AUClast of CH2107 (Molnupiravir) (in vivo; female, Beagle): 778 ng·h/mL
- AUC(0-inf) (in vivo; female, Beagle): 598 ng·h/mL
- AUC(0-t) (in vivo; female, Beagle): 596 ng·h/mL
- Cmax (in vivo; female, Beagle): 1080 ng/mL
- Plasma concentration of CH2107 (Molnupiravir) (in vivo; female, beagle, 0.5 hr): 693 ng/mL
- Plasma concentration of CH2107 (Molnupiravir) (in vivo; female, beagle, 1 hr): 120 ng/mL
- Plasma concentration of CH2107 (Molnupiravir) (in vivo; female, beagle, 4 hr): 8.06 ng/mL
- Plasma concentration of CH2107 (Molnupiravir) (in vivo; female, beagle, 6 hr): 5.45 ng/mL
- Plasma concentration of CH2107 (Molnupiravir) (in vivo; female, beagle, 8 hr): 1.08 ng/mL
- concentration at 0.5 hr (in vivo; [5]): 499 ng/mL
- concentration at 1 hr (in vivo; [5]): 207 ng/mL
- concentration at 4 hr (in vivo; [5]): 8.06 ng/mL
- concentration at 6 hr (in vivo; [5]): 5.45 ng/mL
- concentration at 8 hr (in vivo; [5]): 1.08 ng/mL
- Tmax (in vivo; female, beagle): 30 min
- AUCINF of CH2107 (Molnupiravir) (in vivo; male, Beagle): 1246 ng·h/mL
- AUClast of CH2107 (Molnupiravir) (in vivo; male, Beagle): 1245 ng·h/mL
- Cmax of CH2107 (Molnupiravir) (in vivo; male, Beagle): 1680 ng/mL
- MRTINF of CH2107 (Molnupiravir) (in vivo; male, Beagle): 34 min
- T1/2 of CH2107 (Molnupiravir) (in vivo; male, Beagle): 21.1 min
- Plasma concentration of CH2107 (Molnupiravir) (in vivo; male, Beagle, 0.25 hr): 1680 ng/mL
- AUC(0-inf) (in vivo; male, Beagle): 1100 ng·h/mL
- AUC(0-t) (in vivo; male, Beagle): 1100 ng·h/mL
- MRT inf (in vivo; male, Beagle): 27.7 min
- half-life (in vivo; male, Beagle): 12.7 min
- Plasma concentration of CH2107 (Molnupiravir) (in vivo; male, beagle, 0.5 hr): 1430 ng/mL
- Plasma concentration of CH2107 (Molnupiravir) (in vivo; male, beagle, 2 hr): 11.1 ng/mL
- Plasma concentration of CH2107 (Molnupiravir) (in vivo; male, beagle, 4 hr): 1.44 ng/mL
- Cmax (in vivo; male, beagle): 1450 ng/mL
- concentration at 0.25 hr (in vivo; [6]): 1450 ng/mL
- concentration at 0.5 hr (in vivo; [6]): 1420 ng/mL
- concentration at 2 hr (in vivo; [6]): 9.81 ng/mL
- concentration at 4 hr (in vivo; [6]): 1.44 ng/mL
- Tmax (in vivo; male, beagle): 15 min
- Reduction in patients progressing into hospitalizations (SARS-CoV-2): 50%
- CC50 at 4 days (in vitro [3]): > 100 µM
